Measured values from patent US7501424B2, “N-phenyl-2-pyrimidine-amine derivatives and process for the preparation thereof” (Il-Yang Pharm. Co., Ltd., priority 2005, dated 2009).
Values after ≈ are worked out from the molar mass of the structure shown. Where two headings read alike, the source gives them in different places.

Experiments:
[1] = test system: K562 cancer cell; test: Growth inhibition of K562 cancer cell (MTT); type: cell-based; conditions: for IC50: Homo sapiens, K562, 48 h, K562, MTT, 2 days; for improved activity compared with Imatinib mesylate: K562
Protocol: (§1) In the present experiment, the inhibitory activity of the compound of formula (1) was determined against the growth of K562 cancer cell. First, the cells were allowed to stand in RPMI (Roswell Park Memorial Institute)-1640 medium containing 10% (v/v) fetal bovine serum in an incubator of 37° C. and 5% by volume of CO2. The cancer cells (1000 cells) were transferred to a 96-well plate, and the test compound was diluted. The plate was allowed to stand under the above mentioned conditions for 2 days. After this treatment, to the cells was added 0.2% MTT (3-[4,5-dimethylthiazol-2-yl]-2,5-diphenyltetrazolium bromide) solution, and the resulting mixture was allowed to stand under the constant temperature-condition for 4 hours. The supernatant was removed to leave the resulting crystal. DMSO was added to dissolve the crystal, and the absorbance of the solution was measured at 540 nm. IC50 value was calculated using a computer system according to the following formula: (OD540(test)−OD540(blank)/OD540(control)−OD540(blank))×100

[2] = test system: CT-26 cancer cell; test: Growth inhibition of CT-26 cancer cell (MTT); type: cell-based; conditions: for improved activity compared with Imatinib mesylate: CT-26; for IC50: CT-26, MTT, 2 days
Protocol: as §1
In the present experiment, the inhibitory activity of the compounds of formula (1) was determined against the growth of CT-26 cancer cell. The test was performed according to the same procedure as Experiment 1.

[3] = test system: A549; test: Growth inhibition of lung cancer cell A549 (MTT); type: cell-based
Protocol: as §1
(§2) The test was performed according to the same procedure as Experiment 1.
as §2

[4] = test system: Panc-1; test: Growth inhibition of pancreatic cancer cell Panc-1 (MTT); type: cell-based; conditions: Homo sapiens; Panc-1, Experiment 3
Protocol: as §1, §2

[5] = test system: A-172; test: Growth inhibition of encephalophyma cell A-172 (MTT); type: cell-based; conditions: Homo sapiens; A-172, Experiment 3
Protocol: as §1, §2

[6] = test system: RPMI-6666; test: Growth inhibition of lymphoma cell RPMI-6666 (MTT); type: cell-based; conditions: Homo sapiens; RPMI-6666, Experiment 3
Protocol: as §1, §2

[7] = test system: SNU-C1; test: Growth inhibition of colon cancer cell SNU-C1 (MTT); type: cell-based; conditions: Homo sapiens; SNU-C1, Experiment 3
Protocol: as §1, §2

[8] = test system: SNU-1; test: Growth inhibition of gastric cancer cell SNU-1 (MTT); type: cell-based
Protocol: as §1, §2, §2

[9] = test system: Sarcoma-180; test: Growth inhibition of Sarcoma-180 (MTT); type: cell-based; conditions: for IC50: Sarcoma-180, Experiment 4
Protocol: as §1, §2

[10] = test system: KB; test: Growth inhibition of oral epithelial cancer cell KB (MTT); type: cell-based
Protocol: as §1, §2

[11] = test system: SK-OV-03; test: Growth inhibition of ovarian cancer cell SK-OV-03 (MTT); type: cell-based; conditions: for IC50: SK-OV-03, Experiment 4
Protocol: as §1, §2

[12] = Acute toxicity test in mice (oral administration); type: in vivo; conditions: both sexes, ICR, mouse, in vivo, po
Protocol: (§3) In order to determine the acute toxicity of the compound of the present invention when the compound is orally administered, mice (ICR, 24˜26 g) were fasted for 16 hours. One group consists of 10 males and 10 females. The first group is the control group and 0.5% sodium carboxymethyl cellulose (CMC) was administered per oral to this group. The compounds of Examples 5 and 8 were orally administered in a dosage of 2,000 mg/kg, the maximum dosage in acute toxicity test, to each test group. […] On the last day of the test, 14th day from the start, the mice were subjected to an autopsy in order to examine changes of the internal organs. […] Further, since no mouse died during the test period, it was confirmed that the compounds of Examples 5 and 8 have LD50 of 2,000 mg/kg or more. This means that the compounds of the present invention including those of Examples 5 and 8 are safe in the aspect of acute toxicity.

[13] = test system: mice (ICR); test: Acute toxicity test in mice (oral administration); type: in vivo; conditions: mice (ICR), oral 2,000 mg/kg, 14 days
Protocol: as §3

[14] = Acute toxicity test in rat (oral administration); type: in vivo; conditions: both sexes, SD, rat, in vivo, po
Protocol: (§4) In this test, the acute toxicity of the compound of the present invention when the compound is […] was determined on rat (SD-Rat, 100˜110 g). One group consists of 5 males and 5 females. The first group is the control group and 0.5% CMC was intravenously administered to this group. The compounds of Examples 5 and 8 were orally administered in a dosage of 1,000, 2,000 mg/kg, respectively, to each test group. […] On the last day of the test, 14th day from the start, the rat were subjected to an autopsy in order to examine changes of the internal organs. […] Further, since no […] died during the test period, it was confirmed that the compounds of Examples 5 and 8 have LD50 of 2,000 mg/kg or more. This means that the compounds of the present invention including those of Examples 5 and 8 are safe in the aspect of acute toxicity.

[15] = test system: rat (SD-Rat); test: Acute toxicity test in rat (oral administration); type: in vivo; conditions: SD-Rat, orally 1,000, 2,000 mg/kg, 14 days
Protocol: as §4

[16] = in vivo; conditions: male, Sprague-Dawley, rat, po, 100 mg/kg
[17] = test system: HT-1197; test: Growth inhibition of bladder cancer cell HT-1197 (MTT); type: cell-based; conditions: Homo sapiens, HT1197; HT-1197, Experiment 3
Protocol: as §1, §2

[18] = Comparative pharmacokinetic test in white rats
[19] = Mus musculus, CT26, 48 h, read-out: IC50
[20] = Homo sapiens, A549, Experiment 3, read-out: IC50
[21] = Homo sapiens, SNU1, SNU-1, Experiment 3, read-out: IC50
[22] = male, Sprague-Dawley, rat, plasma, po, 100 mg/kg

With `Cc1cn(-c2cc(NC(=O)c3ccc(C)c(Nc4nccc(-c5cnccn5)n4)c3)cc(C(F)(F)F)c2)cn1` [Example 8, 4-methyl-N-[3-(4-methylimidazol-1-yl)-5-trifluoromethyl-phenyl]-3-(4-pyrazin-2-yl-pyrimidin-2-ylamino)-benzamide] the IC50 [1] was no more than 10 ng/mL, the “improved activity compared with Imatinib mesylate” value [1] was 50 times and the “improved activity compared with Imatinib mesylate” value [2] was 300 times. For the same compound, the IC50 [2, 19] was less than 10 ng/mL, the “improved activity than Imatinib mesylate” value ([3]; A549, Experiment 4) was greater than 3.5 times and the IC50 [3, 20] was 2230 ng/mL (≈ 4.2 µM). It also gave an IC50 [4] of 498 ng/mL (≈ 0.939 µM), an IC50 [5] of less than 10 ng/mL and an IC50 [6] of less than 10 ng/mL. It also gave an IC50 [7] of less than 10 ng/mL, an IC50 [8, 21] of less than 10 ng/mL and an IC50 ([8]; Homo sapiens, SNU1, SNU-1, Experiment 4, read-out: IC50) of 270 ng/mL (≈ 0.509 µM). The “improved activity in comparison with cisplatin” value ([8]; SNU-1, Experiment 4) was “more than 8 times”, the “improved activity than Imatinib mesylate” value ([8]; SNU-1, Experiment 4) was “more than 170 times” and the IC50 ([9]; Mus musculus, read-out: IC50) was less than 0.1 ng/mL. The “improved activity than Imatinib mesylate” value ([9]; Sarcoma-180) was “more than 1×10^4 time”, the “improved activity than Imatinib mesylate” value [10] was “more than 1×10^4 time” and the IC50 ([10]; Homo sapiens, Experiment 4, read-out: IC50) was 0.58 ng/mL (≈ 0.00109 µM). For the same compound, the “improved activity than Imatinib mesylate” value ([11]; SK-OV-03) was greater than 12 times, the IC50 ([11]; read-out: IC50) was 2390 ng/mL (≈ 4.51 µM) and the LD50 at 14 days [12] was no less than 2000 mg/kg. For the same compound, the “clinical conditions and autopsy” value [13] was “neither abnormal response nor specific autopsy result was observed”, the LD50 at 14 days [14] was no less than 2000 mg/kg and the “clinical conditions and autopsy” value [15] was “neither abnormal response nor specific autopsy result was observed”. It also gave an AUC [16] of 61300 ng·h/mL, a Cmax [16] of 4100 ng/mL and a Tmax [16] of 12 h.
In the case of `Cc1ccc(C(=O)Nc2cc(-n3ccnc3C)cc(C(F)(F)F)c2)cc1Nc1nccc(-c2nccnc2C)n1` [Example 13, 4-methyl-N-[3-(2-methylimidazol-1-yl)-5-trifluoromethyl-phenyl]-3-[4-(3-methylpyrazin-2-yl)-pyrimidin-2-ylamino]-benzamide], the IC50 [1] is reported as 304 ng/mL (≈ 0.558 µM), the “improved activity compared with Imatinib mesylate” value [1] is reported as “much higher activity than Imatinib mesylate” and the IC50 [2, 19] is reported as 3770 ng/mL (≈ 6.92 µM).
In the case of `Cc1cn(-c2cc(NC(=O)c3ccc(Nc4nccc(-c5cccnc5)n4)cc3)cc(C(F)(F)F)c2)cn1.Cl.Cl` [Example 24, N-[3-(4-methylimidazol-1-yl)-5-trifluoromethyl-phenyl]-4-(4-pyridin-3-yl-pyrimidin-2-ylamino)-benzamide 2 hydrochloride], the “improved activity compared with Imatinib mesylate” value [1] is reported as 50 times, the “improved activity compared with Imatinib mesylate” value [2] is reported as 300 times and the IC50 [2] is reported as 2.3 ng/mL.
With `Cc1ccc(C(=O)Nc2cc(-n3ccnc3C)cc(C(F)(F)F)c2)cc1Nc1nccc(-c2cnccn2)n1` [Example 9, 4-methyl-N-[3-(2-methylimidazol-1-yl)-5-trifluoromethyl-phenyl]-3-(4-pyrazin-2-yl-pyrimidin-2-ylamino)-benzamide] the IC50 [1] was no more than 10 ng/mL, the “improved activity compared with Imatinib mesylate” value [1] was 50 times and the “improved activity compared with Imatinib mesylate” value [2] was 300 times. For the same compound, the IC50 [2, 19] was less than 10 ng/mL.
With `Cc1cn(-c2cc(NC(=O)c3ccc(C)c(Nc4nccc(-c5nccs5)n4)c3)cc(C(F)(F)F)c2)cn1` [Example 5, 4-methyl-N-[3-(4-methylimidazol-1-yl)-5-trifluoromethyl-phenyl]-3-(4-thiazol-2-yl-pyrimidin-2-ylamino)-benzamide] the IC50 [1] was no more than 10 ng/mL, the “improved activity compared with Imatinib mesylate” value [1] was 50 times and the “improved activity compared with Imatinib mesylate” value [2] was 300 times. The IC50 [2, 19] was 60 ng/mL (≈ 0.112 µM), the IC50 [3, 20] was 82 ng/mL (≈ 0.153 µM) and the IC50 [4] was 7100 ng/mL (≈ 13.3 µM). The IC50 [5] was less than 10 ng/mL, the IC50 [6] was less than 10 ng/mL and the IC50 [17] was 63 ng/mL (≈ 0.118 µM). It also gave an IC50 [7] of less than 10 ng/mL, an IC50 [8, 21] of less than 10 ng/mL and an LD50 at 14 days [12] of no less than 2000 mg/kg. For the same compound, the “clinical conditions and autopsy” value [13] was “neither abnormal response nor specific autopsy result was observed”, the LD50 at 14 days [14] was no less than 2000 mg/kg and the “clinical conditions and autopsy” value [15] was “neither abnormal response nor specific autopsy result was observed”. For the same compound, the AUC [18, 22] was 114000 ng·h/mL, the Cmax [18, 22] was 8270 ng/mL and the Tmax [18, 22] was 11.2 h. For the same compound, the “AUC as much as that of Imatinib mesylate” value ([18]; white rats, 100 mg/kg per oral) was roughly 5 times and the “Cmax as much as that of Imatinib mesylate” value ([18]; white rats, 100 mg/kg per oral) was “about 4 times”.
For `Cc1ccc(C(=O)Nc2cc(-n3ccnc3C)cc(C(F)(F)F)c2)cc1Nc1nccc(-c2nccs2)n1` [Example 6, 4-methyl-N-[3-(2-methylimidazol-1-yl)-5-trifluoromethyl-phenyl]-3-(4-thiazol-2-yl-pyrimidin-2-ylamino)-benzamide], the “improved activity compared with Imatinib mesylate” value [1] was 50 times, the “improved activity compared with Imatinib mesylate” value [2] was 300 times and the IC50 [2, 19] was less than 10 ng/mL.
With `Cc1cn(-c2cc(NC(=O)c3ccc(Nc4nccc(-c5nccs5)n4)cc3)cc(C(F)(F)F)c2)cn1.Cl.Cl` [Example 30, N-[3-(4-methylimidazol-1-yl)-5-trifluoromethyl-phenyl]-4-(4-thiazol-2-yl-pyrimidin-2-ylamino)-benzamide 2 hydrochloride] the “improved activity compared with Imatinib mesylate” value [1] was 50 times, the “improved activity compared with Imatinib mesylate” value [2] was 300 times and the IC50 [2] was 9.4 ng/mL.
In the case of `N.N.[Cl][Pt][Cl]` [Cisplatin, reference compound], the IC50 ([3]; A549, Experiment 4) is reported as 679 ng/mL, the IC50 ([8]; SNU-1, Experiment 4) is reported as 2064 ng/mL and the IC50 [9] is reported as less than 0.1 ng/mL. The IC50 ([10]; Experiment 4) was 0.28 ng/mL and the IC50 [11] was 782 ng/mL.
For `Cc1cnc(NC(=O)c2ccc(C)c(Nc3nccc(-c4nccs4)n3)c2)s1` [Example 7, 4-methyl-N-(5-methylthiazol-2-yl)-3-(4-thiazol-2-yl-pyrimidin-2-ylamino)-benzamide], the IC50 [1] was no more than 10 ng/mL, the “improved activity compared with Imatinib mesylate” value [1] was 50 times and the “improved activity compared with Imatinib mesylate” value [2] was 300 times. It also gave an IC50 [2, 19] of less than 10 ng/mL.
For `Cc1cn(-c2cc(NC(=O)c3ccc(C)c(Nc4nccc(-c5nccnc5C)n4)c3)cc(C(F)(F)F)c2)cn1` [Example 12, 4-methyl-N-[3-(4-methylimidazol-1-yl)-5-trifluoromethyl-phenyl]-3-[4-(3-methylpyrazin-2-yl)-pyrimidin-2-ylamino]-benzamide], the IC50 [1] was 210 ng/mL (≈ 0.386 µM), the “improved activity compared with Imatinib mesylate” value [1] was “much higher activity than Imatinib mesylate” and the IC50 [2, 19] was 2930 ng/mL (≈ 5.38 µM).
